The NIST ThermoML archive (doi:10.1021/acs.jced.7b00005)
± gives the expanded uncertainty stated by the source.

Settings: Liquid, Ebulliometric method (Recirculating still)

vapor or sublimation pressure (295.25 K): 10 ± 0.3 kPa
vapor or sublimation pressure (295.4 K): 10 ± 0.3 kPa
SMILES: CC#N [acetonitrile]
